Measurements reported in ChEMBL document CHEMBL2407043, “Hydantoin based inhibitors of MMP13--discovery of AZD6605” (Bioorg Med Chem Lett, 2013).
In brackets after ≈: the same amount, converted by molar mass.

Legend:
[1] = molecular target: Matrix metalloproteinase-14 (Homo sapiens, UniProt P50281)
[2] = Thermodynamic solubility of the compound in phosphate buffer at pH 7.4 at 25 degC after 24 hrs; conditions: read-out: Therm_solubility
[3] = molecular target: Macrophage metalloelastase (Homo sapiens, UniProt P39900); test: Inhibition of MMP-12 (unknown origin) by fluorescence assay
Sequence of Macrophage metalloelastase (P39900 whole entry): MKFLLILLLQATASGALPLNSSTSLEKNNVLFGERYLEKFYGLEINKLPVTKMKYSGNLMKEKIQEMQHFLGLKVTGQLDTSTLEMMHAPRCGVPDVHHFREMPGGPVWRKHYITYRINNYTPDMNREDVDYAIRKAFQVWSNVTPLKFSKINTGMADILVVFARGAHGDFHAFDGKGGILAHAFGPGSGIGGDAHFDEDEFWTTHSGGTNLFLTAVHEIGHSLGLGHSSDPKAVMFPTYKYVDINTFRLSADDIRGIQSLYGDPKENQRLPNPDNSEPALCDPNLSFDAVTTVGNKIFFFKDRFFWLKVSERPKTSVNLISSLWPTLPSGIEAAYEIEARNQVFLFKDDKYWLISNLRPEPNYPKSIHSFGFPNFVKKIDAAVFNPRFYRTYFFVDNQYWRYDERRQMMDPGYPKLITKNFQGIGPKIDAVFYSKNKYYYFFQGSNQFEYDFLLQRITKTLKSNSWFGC

Cytochrome P450 3A4 = Cytochrome P450 3A4 (Homo sapiens, UniProt P08684); test: Inhibition of human CYP3A4; assay type: ADME
Sequence of Cytochrome P450 3A4 (P08684 whole entry): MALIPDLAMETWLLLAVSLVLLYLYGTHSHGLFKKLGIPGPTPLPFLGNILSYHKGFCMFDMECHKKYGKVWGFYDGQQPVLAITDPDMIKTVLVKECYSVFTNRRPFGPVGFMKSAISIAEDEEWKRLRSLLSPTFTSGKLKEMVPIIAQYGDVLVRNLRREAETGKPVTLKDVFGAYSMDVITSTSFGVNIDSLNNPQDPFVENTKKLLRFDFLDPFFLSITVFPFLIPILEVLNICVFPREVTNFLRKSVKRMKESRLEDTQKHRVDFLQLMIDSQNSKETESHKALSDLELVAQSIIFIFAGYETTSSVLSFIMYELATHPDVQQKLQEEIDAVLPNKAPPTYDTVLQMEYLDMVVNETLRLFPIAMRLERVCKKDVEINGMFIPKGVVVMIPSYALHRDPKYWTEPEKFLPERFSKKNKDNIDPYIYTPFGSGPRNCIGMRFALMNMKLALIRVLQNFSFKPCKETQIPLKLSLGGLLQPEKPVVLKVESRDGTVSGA

[4] = Oral bioavailability in rat at 5 mg/kg; assay type: ADME, organism-based; conditions: in vivo
Cytochrome P450 2C19 = Cytochrome P450 2C19 (Homo sapiens, UniProt P33261); test: Inhibition of human CYP2C19; assay type: ADME
Sequence of Cytochrome P450 2C19 (P33261 whole entry): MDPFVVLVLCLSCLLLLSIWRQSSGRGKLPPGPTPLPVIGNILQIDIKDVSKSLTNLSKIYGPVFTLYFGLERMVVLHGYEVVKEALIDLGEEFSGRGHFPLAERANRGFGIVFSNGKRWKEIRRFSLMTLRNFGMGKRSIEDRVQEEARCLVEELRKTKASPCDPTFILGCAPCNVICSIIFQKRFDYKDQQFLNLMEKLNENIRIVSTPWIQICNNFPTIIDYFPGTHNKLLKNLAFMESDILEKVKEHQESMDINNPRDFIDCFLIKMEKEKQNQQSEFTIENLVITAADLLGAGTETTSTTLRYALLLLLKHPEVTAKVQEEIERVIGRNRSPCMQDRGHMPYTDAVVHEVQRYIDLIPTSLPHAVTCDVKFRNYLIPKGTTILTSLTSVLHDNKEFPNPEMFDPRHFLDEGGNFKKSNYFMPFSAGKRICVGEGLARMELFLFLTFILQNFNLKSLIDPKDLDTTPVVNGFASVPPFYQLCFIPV

Cytochrome P450 2D6 = Cytochrome P450 2D6 (Homo sapiens, UniProt P10635); test: Inhibition of human CYP2D6; assay type: ADME
Sequence of Cytochrome P450 2D6 (P10635 whole entry): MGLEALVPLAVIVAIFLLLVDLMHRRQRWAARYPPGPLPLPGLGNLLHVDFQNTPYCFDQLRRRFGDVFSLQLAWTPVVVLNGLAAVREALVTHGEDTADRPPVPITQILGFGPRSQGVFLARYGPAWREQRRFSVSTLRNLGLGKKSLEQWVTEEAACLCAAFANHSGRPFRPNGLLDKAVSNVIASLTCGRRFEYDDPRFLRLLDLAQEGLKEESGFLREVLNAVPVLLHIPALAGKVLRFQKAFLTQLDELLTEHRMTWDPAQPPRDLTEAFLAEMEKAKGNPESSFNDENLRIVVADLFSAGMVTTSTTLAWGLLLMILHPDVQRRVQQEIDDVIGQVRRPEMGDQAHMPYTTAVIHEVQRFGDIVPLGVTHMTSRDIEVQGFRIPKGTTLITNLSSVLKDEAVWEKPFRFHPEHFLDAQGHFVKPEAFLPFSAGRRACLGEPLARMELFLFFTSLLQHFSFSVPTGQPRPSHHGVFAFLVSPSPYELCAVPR

[5] = Volume of distribution at steady state in dog at 0.5 mg/kg, iv and 1 mg/kg, po; assay type: ADME, organism-based, Canis lupus familiaris; conditions: in vivo, read-out: Vdss
Cytochrome P450 1A2 = molecular target: T1, Cytochrome P450 1A2 (Homo sapiens, UniProt P05177); test: Inhibition of human CYP1A2; assay type: ADME
T1 sequence (P05177 whole entry): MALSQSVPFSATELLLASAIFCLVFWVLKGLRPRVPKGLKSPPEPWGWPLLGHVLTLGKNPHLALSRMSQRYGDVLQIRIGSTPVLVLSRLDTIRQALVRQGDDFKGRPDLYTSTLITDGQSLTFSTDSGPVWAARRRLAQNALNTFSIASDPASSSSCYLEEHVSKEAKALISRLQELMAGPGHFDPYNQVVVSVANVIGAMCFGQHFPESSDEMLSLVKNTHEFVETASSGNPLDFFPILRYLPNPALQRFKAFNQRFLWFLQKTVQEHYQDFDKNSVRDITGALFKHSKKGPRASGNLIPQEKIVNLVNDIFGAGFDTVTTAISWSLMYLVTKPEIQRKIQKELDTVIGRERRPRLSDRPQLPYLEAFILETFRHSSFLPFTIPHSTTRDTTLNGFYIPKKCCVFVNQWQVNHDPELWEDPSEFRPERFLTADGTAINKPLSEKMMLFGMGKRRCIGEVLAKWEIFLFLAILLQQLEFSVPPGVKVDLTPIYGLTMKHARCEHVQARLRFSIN

[6] = Oral bioavailability in dog at 1 mg/kg; assay type: ADME, organism-based, Canis lupus familiaris; conditions: in vivo
[7] = Clearance in dog at 0.5 mg/kg, iv and 1 mg/kg, po; assay type: ADME, organism-based, Canis lupus familiaris; conditions: in vivo
[8] = Clearance in rat at 2 mg/kg, iv and 5 mg/kg, po; assay type: ADME, organism-based; conditions: in vivo
[9] = Volume of distribution at steady state in rat at 2 mg/kg, iv and 5 mg/kg, po; assay type: ADME, organism-based; conditions: in vivo, read-out: Vdss
[10] = Half life in rat at 2 mg/kg, iv and 5 mg/kg, po; assay type: ADME, organism-based; conditions: in vivo
[11] = Half life in dog at 0.5 mg/kg, iv and 1 mg/kg, po; assay type: ADME, organism-based, Canis lupus familiaris; conditions: in vivo
Cytochrome P450 2C9 = Cytochrome P450 2C9 (Homo sapiens, UniProt P11712); test: Inhibition of human CYP2C9; assay type: ADME
Sequence of Cytochrome P450 2C9 (P11712 whole entry): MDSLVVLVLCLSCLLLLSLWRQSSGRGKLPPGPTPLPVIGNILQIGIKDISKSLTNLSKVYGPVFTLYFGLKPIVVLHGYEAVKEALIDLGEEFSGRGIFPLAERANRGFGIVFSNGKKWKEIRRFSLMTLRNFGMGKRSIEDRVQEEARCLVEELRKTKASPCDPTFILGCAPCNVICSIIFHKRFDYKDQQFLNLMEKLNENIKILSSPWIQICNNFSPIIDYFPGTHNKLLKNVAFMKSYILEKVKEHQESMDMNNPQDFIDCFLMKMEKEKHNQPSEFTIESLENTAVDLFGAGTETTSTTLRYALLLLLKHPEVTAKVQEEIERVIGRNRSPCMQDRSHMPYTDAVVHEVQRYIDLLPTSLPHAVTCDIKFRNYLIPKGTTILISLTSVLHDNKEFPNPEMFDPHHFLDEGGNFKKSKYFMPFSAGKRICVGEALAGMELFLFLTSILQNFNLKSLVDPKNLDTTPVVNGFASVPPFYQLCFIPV

in vitro = conditions: human, liver microsomes
[12] = Clearance in rat at 2 mg/kg, iv; assay type: ADME, organism-based; parameters: dose 2 mg/kg, route intravenous; conditions: in vivo
[13] = Elimination half life in rat; assay type: ADME, organism-based; conditions: in vivo, read-out: beta t1/2 (converted)
[14] = Oral bioavailability in rat at 3 to 10 mg/kg; assay type: ADME, organism-based; conditions: in vivo
[15] = Elimination half life in dog; assay type: ADME, organism-based, Canis lupus familiaris; conditions: in vivo, read-out: beta t1/2 (converted)
[16] = Half life in rat; assay type: ADME, organism-based; conditions: in vivo
[17] = Elimination half life in mouse; assay type: ADME, organism-based; conditions: in vivo, read-out: beta t1/2 (converted)

An IC50 [1] of 1950 nM and a solubility thermodynamic at 24 h [2] of 34 µM (≈ 15.8 µg/mL) were found for `C[C@]1(CS(=O)(=O)N2CCC(Oc3ccc(OCC(F)(F)F)cc3)CC2)NC(=O)NC1=O` in this work.
An IC50 [1] of 1860 nM was found for `C[C@]1(CS(=O)(=O)N2CCC(Oc3ccc(OCc4ccc(C(F)(F)F)o4)cc3)CC2)NC(=O)NC1=O` in this work.
An IC50 [1] of 2820 nM, an IC50 [3] of 2 nM and a solubility thermodynamic at 24 h [2] of 15 µM (≈ 6.17 µg/mL) were found for `CCOc1ccc(OC2CCN(S(=O)(=O)C[C@@]3(C)NC(=O)NC3=O)CC2)cc1` in this work.
An IC50 [1] of 4740 nM and a solubility thermodynamic at 24 h [2] of 4.4 µM (≈ 2.27 µg/mL) were found for `C[C@]1(CS(=O)(=O)N2CCC(Oc3ccc(OCC(F)(F)C(F)(F)F)cc3)CC2)NC(=O)NC1=O` in this work.
An IC50 (Cytochrome P450 3A4) of 1000 nM was found for `O=CN(O)[C@@H](CCCc1ncccn1)CS(=O)(=O)N1CCN(c2ccc(C(F)(F)F)cn2)CC1` in this work.
A solubility thermodynamic at 24 h [2] of 1 µM (≈ 0.539 µg/mL) was found for `C[C@]1(CS(=O)(=O)N2CCN(c3ncc(OCc4ccc(S(C)(=O)=O)cc4)cn3)CC2)NC(=O)NC1=O` in this work.
An IC50 [1] of 553 nM and a solubility thermodynamic at 24 h [2] of 32 µM (≈ 15.9 µg/mL) were found for `C[C@]1(CS(=O)(=O)N2CCC(Oc3ccc(OCC(F)(F)C(F)F)cc3)CC2)NC(=O)NC1=O` in this work.
For `C[C@]1(CS(=O)(=O)N2CCC(Oc3ccc(OCc4ccccc4)cc3)CC2)NC(=O)NC1=O`, the solubility thermodynamic at 24 h [2] was < 0.8 µM.
In the case of `C[C@]1(CS(=O)(=O)N2CCC(Oc3ccc(OCc4ccccn4)cc3)CC2)NC(=O)NC1=O`, the IC50 [1] is reported as 6900 nM, the bioavailability [4] is reported as 35% and the IC50 (Cytochrome P450 3A4) is reported as > 10000 nM. For the same compound, the IC50 (Cytochrome P450 2C19) was > 10 µM, the IC50 (Cytochrome P450 2D6) was > 10 µM and the Vd [5] was 0.6 L/kg. For the same compound, the IC50 (Cytochrome P450 1A2) was > 10 µM, the bioavailability [6] was 51% and the clearance [7] was 3 mL/min/kg. For the same compound, the clearance [8] was 17 mL/min/kg, the Vd [9] was 0.8 L/kg and the half-life [10] was 150 min. For the same compound, the half-life [11] was 138 min, the IC50 (Cytochrome P450 2C9) was > 10 µM and the solubility thermodynamic at 24 h [2] was 20 µM (≈ 9.49 µg/mL).
An IC50 [1] of 350 nM and a solubility thermodynamic at 24 h [2] of 28 µM (≈ 13.5 µg/mL) were found for `C[C@]1(CS(=O)(=O)N2CCC(Oc3ccc(OCc4cnsn4)cc3)CC2)NC(=O)NC1=O` in this work.
With `CCc1cc(COc2cnc(N3CCN(S(=O)(=O)C[C@@]4(C)NC(=O)NC4=O)CC3)nc2)on1` the microsomal CLint (in vitro) was < 2 µL/min/mg.
A clearance [12] of 18.1 mL/min/kg, a half-life [13] of 450 min and a bioavailability [14] of 51% were found for `C[C@]1(CS(=O)(=O)N2CCN(c3ncc(OCc4cccc(C#N)c4)cn3)CC2)NC(=O)NC1=O` in this work. For the same compound, the half-life [15] was 324 min, the half-life [16] was 450 min and the Vd [9] was 0.5 L/kg. For the same compound, the half-life [17] was 348 min, the solubility thermodynamic at 24 h [2] was 66 µM (≈ 32 µg/mL) and the microsomal CLint (in vitro) was < 2 µL/min/mg.
An IC50 [1] of 62 nM and a solubility thermodynamic at 24 h [2] of 3.1 µM (≈ 1.71 µg/mL) were found for `C[C@]1(CS(=O)(=O)N2CCC(Oc3ccc(OCc4ccc(S(C)(=O)=O)cc4)cc3)CC2)NC(=O)NC1=O` in this work.
A clearance [12] of 4.8 mL/min/kg, a half-life [16] of 114 min and a Vd [9] of 0.5 L/kg were found for `C[C@]1(CS(=O)(=O)N2CCN(c3ncc(OCc4ccc(F)cc4)cn3)CC2)NC(=O)NC1=O` in this work. The solubility thermodynamic at 24 h [2] was 16 µM (≈ 7.66 µg/mL) and the microsomal CLint (in vitro) was 16 µL/min/mg.
A solubility thermodynamic at 24 h [2] of 4.4 µM (≈ 2.19 µg/mL) was found for `C[C@]1(CS(=O)(=O)N2CCC(Oc3ccc(OCc4cccc(C#N)c4)cc3)CC2)NC(=O)NC1=O` in this work.
A clearance [12] of 13.4 mL/min/kg, a bioavailability [14] of 37% and a half-life [16] of 40.2 min were found for `Cc1cc(COc2cnc(N3CCN(S(=O)(=O)C[C@@]4(C)NC(=O)NC4=O)CC3)nc2)on1` in this work. For the same compound, the Vd [9] was 0.5 L/kg, the solubility thermodynamic at 24 h [2] was 13 µM (≈ 6.05 µg/mL) and the microsomal CLint (in vitro) was < 2 µL/min/mg.
A solubility thermodynamic at 24 h [2] of 32 µM (≈ 15.3 µg/mL) was found for `Cc1cc(COc2cnc(N3CCN(S(=O)(=O)C[C@@]4(C)NC(=O)NC4=O)CC3)nc2)n(C)n1` in this work.
With `CCCOc1ccc(OC2CCN(S(=O)(=O)C[C@@]3(C)NC(=O)NC3=O)CC2)cc1` the IC50 [1] was > 10000 nM.
